According to patent US12336981B2, “Compounds and compositions for the inhibition of NAMPT” (Valo Health, Inc., priority 2010, dated 2025):

Columns and labels:
A2780 cells = experiment: In-vitro cell proliferation assay (SRB), A2780 cells; assay type: cell-based; settings: Homo sapiens, A2780, 72 h, A2780 cells, 72 hours, SRB; read-out: A2780 IC50
In short: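 Growth inhibition was derived from background-corrected SRB absorbance (570 nm), measured on cells fixed in 6% TCA after three days of compound treatment under 5% CO2 at 37° C.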

NAMPT = molecular target: T1, NAMPT (Homo sapiens, UniProt P43490); experiment: Biochemical inhibition assay: NAMPT enzymatic reaction, NMN quantified by mass spectrometry; settings: NAMPT enzymatic assay; read-out: Biochem IC50
T1 construct: His tag; host or cells: E. coli
T1 sequence (P43490 whole entry): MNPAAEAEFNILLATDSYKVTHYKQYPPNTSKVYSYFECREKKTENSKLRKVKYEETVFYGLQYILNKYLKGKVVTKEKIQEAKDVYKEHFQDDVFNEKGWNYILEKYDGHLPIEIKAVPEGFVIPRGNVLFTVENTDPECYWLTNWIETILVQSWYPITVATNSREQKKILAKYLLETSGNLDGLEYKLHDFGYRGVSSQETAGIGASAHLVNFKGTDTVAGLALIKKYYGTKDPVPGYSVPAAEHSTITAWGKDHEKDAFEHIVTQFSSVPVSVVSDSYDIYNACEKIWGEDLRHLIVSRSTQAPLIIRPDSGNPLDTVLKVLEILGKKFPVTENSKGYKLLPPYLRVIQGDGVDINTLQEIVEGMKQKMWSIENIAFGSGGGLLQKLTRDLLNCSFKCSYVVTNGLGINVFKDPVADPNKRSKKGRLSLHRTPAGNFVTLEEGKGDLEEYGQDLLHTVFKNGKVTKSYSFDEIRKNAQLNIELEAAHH
In short: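 Inhibition of E. coli-expressed His-tagged human NAMPT, measured as NMN formation by mass spectrometry after a 30 min room-temperature reaction containing 1 μM NAM, 100 μM PRPP and 2.5 mM ATP.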

Compound | IC50 (A2780 cells) | IC50 (NAMPT)
O=C(NCc1ccc(S(=O)(=O)c2cnc(N3CCCC3)s2)cc1)c1cnc2nccn2c1 [N-({4-[2-(pyrrolidin-1-yl)-1,3-thiazole-5-sulfonyl]phenyl}methyl)imidazo[1,2-a]pyrimidine-6-carboxamide] | 0.9 nM | 2.9 nM
O=C(NCc1ccc(S(=O)(=O)c2cnc(N3CCCC3)s2)cc1)c1cc2ccncc2s1 [N-({4-[2-(pyrrolidin-1-yl)-1,3-thiazole-5-sulfonyl]phenyl}methyl)thieno[2,3-c]pyridine-2-carboxamide] | 0.7 nM | 1.5 nM
O=C(NCc1ccc(S(=O)(=O)c2ccc3nc(C(F)(F)F)cn3c2)cc1)c1cnc2[nH]ncc2c1 [N-({4-[2-(trifluoromethyl)imidazo[1,2-a]pyridine-6-sulfonyl]phenyl}methyl)-1H-pyrazolo[3,4-b]pyridine-5-carboxamide] | 33 nM | 49.7 nM
O=C(NCc1ccc(S(=O)(=O)c2ccc3nc(C(F)(F)F)cn3c2)cc1)c1cc2ccncc2o1 [N-({4-[2-(trifluoromethyl)imidazo[1,2-a]pyridine-6-sulfonyl]phenyl}methyl)furo[2,3-c]pyridine-2-carboxamide] | 11.9 nM | 21.2 nM
O=C(NCc1ccc(S(=O)(=O)c2ccc3nc(C(F)(F)F)cn3c2)cc1)c1ccc2nccn2c1 [N-({4-[2-(trifluoromethyl)imidazo[1,2-a]pyridine-6-sulfonyl]phenyl}methyl)imidazo[1,2-a]pyridine-6-carboxamide] | 7 nM | 36.2 nM
O=C(NCc1ccc(S(=O)(=O)c2ccc3nc(C(F)(F)F)cn3c2)cc1)c1cc2ccncc2s1 [N-({4-[2-(trifluoromethyl)imidazo[1,2-a]pyridine-6-sulfonyl]phenyl}methyl)thieno[2,3-c]pyridine-2-carboxamide] | 3.9 nM | 3.1 nM
O=C(NCc1ccc(S(=O)(=O)c2cccnc2C(F)(F)F)cc1)c1cc2ccncc2o1 [N-({4-[2-(trifluoromethyl)pyridine-3-sulfonyl]phenyl}methyl)furo[2,3-c]pyridine-2-carboxamide] | 27.9 nM | 30.4 nM
O=C(NCc1ccc(S(=O)(=O)c2ccnc(N3CCOCC3)c2Cl)cc1)c1cc2ccncc2s1 [N-({4-[3-chloro-2-(morpholin-4-yl)pyridine-4-sulfonyl]phenyl}methyl)thieno[2,3-c]pyridine-2-carboxamide] | 1.8 nM | 8.5 nM
O=C(NCc1ccc(S(=O)(=O)c2cc(C(F)(F)F)ccn2)cc1)c1cnc2[nH]ncc2c1 [N-({4-[4-(trifluoromethyl)pyridine-2-sulfonyl]phenyl}methyl)-1H-pyrazolo[3,4-b]pyridine-5-carboxamide] | 11.8 nM | 28.3 nM
O=C(NCc1ccc(S(=O)(=O)c2cc(C(F)(F)F)ccn2)cc1)c1cc2ccncc2o1 [N-({4-[4-(trifluoromethyl)pyridine-2-sulfonyl]phenyl}methyl)furo[2,3-c]pyridine-2-carboxamide] | 6.1 nM | 13.9 nM
O=C(NCc1ccc(S(=O)(=O)c2cc(C(F)(F)F)ccn2)cc1)c1cnc2nccn2c1 [N-({4-[4-(trifluoromethyl)pyridine-2-sulfonyl]phenyl}methyl)imidazo[1,2-a]pyrimidine-6-carboxamide] | 13 nM | 8.7 nM
O=C(NCc1ccc(S(=O)(=O)c2cc(C(F)(F)F)ccn2)cc1)c1cc2ccncc2s1 [N-({4-[4-(trifluoromethyl)pyridine-2-sulfonyl]phenyl}methyl)thieno[2,3-c]pyridine-2-carboxamide] | 3 nM | 3.6 nM
CN(C)c1cnc(S(=O)(=O)c2ccc(CNC(=O)c3ccc4nccn4c3)cc2)cn1 [N-({4-[5-(dimethylamino)pyrazine-2-sulfonyl]phenyl}methyl)imidazo[1,2-a]pyridine-6-carboxamide] | 3.6 nM | 16 nM
O=C(NCc1ccc(S(=O)(=O)c2cncc(N3CCCC3)c2)cc1)c1ccc2ncsc2c1 [N-({4-[5-(pyrrolidin-1-yl)pyridine-3-sulfonyl]phenyl}methyl)-1,3-benzothiazole-6-carboxamide] | 100 to 1000 nM | 9.2 nM
O=C(NCc1ccc(S(=O)(=O)c2cncc(N3CCCC3)c2)cc1)c1cnc2[nH]ncc2c1 [N-({4-[5-(pyrrolidin-1-yl)pyridine-3-sulfonyl]phenyl}methyl)-1H-pyrazolo[3,4-b]pyridine-5-carboxamide] | 4 nM | 17.9 nM
O=C(NCc1ccc(S(=O)(=O)c2cncc(N3CCCC3)c2)cc1)c1cc2cnccc2[nH]1 [N-({4-[5-(pyrrolidin-1-yl)pyridine-3-sulfonyl]phenyl}methyl)-1H-pyrrolo[3,2-c]pyridine-2-carboxamide] | 2 nM | 13.9 nM
O=C(NCc1ccc(S(=O)(=O)c2cncc(N3CCCC3)c2)cc1)c1cc2ccncc2o1 [N-({4-[5-(pyrrolidin-1-yl)pyridine-3-sulfonyl]phenyl}methyl)furo[2,3-c]pyridine-2-carboxamide] | 4.9 nM | 22.8 nM

Compound | IC50 (A2780 cells) | IC50 (NAMPT)
O=C(NCc1ccc(S(=O)(=O)c2cncc(N3CCCC3)c2)cc1)c1ccc2nccn2c1 [N-({4-[5-(pyrrolidin-1-yl)pyridine-3-sulfonyl]phenyl}methyl)imidazo[1,2-a]pyridine-6-carboxamide] | 0.5 nM | 4 nM
O=C(NCc1ccc(S(=O)(=O)c2ccc(C(F)(F)F)cn2)cc1)c1cnc2[nH]ncc2c1 [N-({4-[5-(trifluoromethyl)pyridine-2-sulfonyl]phenyl}methyl)-1H-pyrazolo[3,4-b]pyridine-5-carboxamide] | 100 to 1000 nM | 100 to 1000 nM
O=C(NCc1ccc(S(=O)(=O)c2ccc(C(F)(F)F)cn2)cc1)c1cc2ccncc2o1 [N-({4-[5-(trifluoromethyl)pyridine-2-sulfonyl]phenyl}methyl)furo[2,3-c]pyridine-2-carboxamide] | 100 to 1000 nM | 37 nM
O=C(NCc1ccc(S(=O)(=O)c2ccc(C(F)(F)F)cn2)cc1)c1ccc2nccn2c1 [N-({4-[5-(trifluoromethyl)pyridine-2-sulfonyl]phenyl}methyl)imidazo[1,2-a]pyridine-6-carboxamide] | 32.6 nM | 46.3 nM
O=C(NCc1ccc(S(=O)(=O)c2ccc(C(F)(F)F)cn2)cc1)c1cnc2nccn2c1 [N-({4-[5-(trifluoromethyl)pyridine-2-sulfonyl]phenyl}methyl)imidazo[1,2-a]pyrimidine-6-carboxamide] | 70.8 nM | 5.9 nM
O=C(NCc1ccc(S(=O)(=O)c2ccc(C(F)(F)F)cn2)cc1)c1cc2ccncc2s1 [N-({4-[5-(trifluoromethyl)pyridine-2-sulfonyl]phenyl}methyl)thieno[2,3-c]pyridine-2-carboxamide] | 100 to 1000 nM | 23.5 nM
O=C(NCc1ccc(S(=O)(=O)c2cncc(C(F)(F)F)c2)cc1)c1cnc2[nH]ncc2c1 [N-({4-[5-(trifluoromethyl)pyridine-3-sulfonyl]phenyl}methyl)-1H-pyrazolo[3,4-b]pyridine-5-carboxamide] | 4 nM | 11 nM
O=C(NCc1ccc(S(=O)(=O)c2cncc(C(F)(F)F)c2)cc1)c1ccc2nccn2c1 [N-({4-[5-(trifluoromethyl)pyridine-3-sulfonyl]phenyl}methyl)imidazo[1,2-a]pyridine-6-carboxamide] | 1.3 nM | 9 nM
O=C(NCc1ccc(S(=O)(=O)c2ccc(-n3cccn3)nc2)cc1)c1ccc2nccn2c1 [N-({4-[6-(1H-pyrazol-1-yl)pyridine-3-sulfonyl]phenyl}methyl)imidazo[1,2-a]pyridine-6-carboxamide] | 1.9 nM | 4 nM
O=C(NCc1ccc(S(=O)(=O)c2cccc(-c3ccc(F)c(F)c3)n2)cc1)c1cnc2[nH]ncc2c1 [N-({4-[6-(3,4-difluorophenyl)pyridine-2-sulfonyl]phenyl}methyl)-1H-pyrazolo[3,4-b]pyridine-5-carboxamide] | 41 nM | 17.8 nM
O=C(NCc1ccc(S(=O)(=O)c2cccc(-c3ccc(F)c(F)c3)n2)cc1)c1cc2cnccc2[nH]1 [N-({4-[6-(3,4-difluorophenyl)pyridine-2-sulfonyl]phenyl}methyl)-1H-pyrrolo[3,2-c]pyridine-2-carboxamide] | 12.7 nM | 16 nM
O=C(NCc1ccc(S(=O)(=O)c2cccc(-c3ccc(F)c(F)c3)n2)cc1)c1cc2ccncc2o1 [N-({4-[6-(3,4-difluorophenyl)pyridine-2-sulfonyl]phenyl}methyl)furo[2,3-c]pyridine-2-carboxamide] | 42.7 nM | 5 nM
O=C(NCc1ccc(S(=O)(=O)c2cccc(-c3ccc(F)c(F)c3)n2)cc1)c1ccc2nccn2c1 [N-({4-[6-(3,4-difluorophenyl)pyridine-2-sulfonyl]phenyl}methyl)imidazo[1,2-a]pyridine-6-carboxamide] | 5.7 nM | 4.3 nM
O=C(NCc1ccc(S(=O)(=O)c2cccc(-c3ccc(F)c(F)c3)n2)cc1)c1cc2ccncc2s1 [N-({4-[6-(3,4-difluorophenyl)pyridine-2-sulfonyl]phenyl}methyl)thieno[2,3-c]pyridine-2-carboxamide] | 13.2 nM | 2.2 nM
CN1CCN(c2ccc(S(=O)(=O)c3ccc(CNC(=O)c4cc5cnccc5[nH]4)cc3)cn2)CC1 [N-({4-[6-(4-methylpiperazin-1-yl)pyridine-3-sulfonyl]phenyl}methyl)-1H-pyrrolo[3,2-c]pyridine-2-carboxamide] | 0.6 nM | 6 nM
CN(C)c1ccc(S(=O)(=O)c2ccc(CNC(=O)c3cnc4[nH]ncc4c3)cc2)cn1 [N-({4-[6-(dimethylamino)pyridine-3-sulfonyl]phenyl}methyl)-1H-pyrazolo[3,4-b]pyridine-5-carboxamide] | 3.3 nM | 30.5 nM
